Results: US20120190687A1, “Pyrazinylpyrazoles” (Bayer CropScience Ag, priority 2009, published 2012)

Legend:
[1] = logP by reversed-phase HPLC (EEC Directive 79/831 Annex V.A8); assay type: physicochemical; settings: * LC-MS, acidic range, pH 2.7, 0.1% aqueous formic acid / acetonitrile
From the text: [table] The calibration is effected with unbranched alkan-2-ones (having 3 to 16 carbon atoms) with known log P values (log P values determined on the basis of the retention times by linear interpolation between two successive alkanones).

[2] = system: Boophilus microplus females of the SP-resistant Parkhurst strain; assay: Boophilus microplus (dip); assay type: in vivo; settings: 100 ppm, after 7 days, laying of fertile eggs
Protocol: Boophilus microplus (dip)
Test animals: adult engorged Boophilus microplus females of the SP-resistant Parkhurst strain
Solvent: Dimethyl Sulphoxide
10 mg of active ingredient are dissolved in 0.5 ml of dimethyl sulphoxide. For the purpose of preparing a suitable formulation, the active ingredient solution is diluted with water to the concentration desired in each case. This active ingredient preparation is pipetted into tubes. 8-10 ticks are transferred into a further tube with holes. The tube is immersed into the active ingredient formulation, and all ticks are completely wetted. After the liquid has run out, the ticks are transferred onto filter discs in plastic dishes and stored in a climate-controlled room. The activity is assessed after 7 days by laying of fertile eggs. Eggs whose fertility is not outwardly visible are stored in glass tubes in a climate-controlled cabinet until the larvae hatch. Efficacy of 100% means that none of the ticks has laid any fertile eggs.

[3] = system: Boophilus microplus; assay: Boophilus microplus test (BOOPMI injection); assay type: in vivo; settings: 20 μg/animal, injection into abdomen, after 7 days, laying of fertile eggs
Protocol: Boophilus microplus Test (BOOPMI Injection) Solvent: Dimethyl Sulphoxide To prepare an appropriate active ingredient formulation, 10 mg of active ingredient are mixed with 0.5 ml of solvent and the concentrate is diluted with solvent to the desired concentration. The active ingredient solution is injected into the abdomen (Boophilus microplus), and the animals are transferred into dishes and stored in a climate-controlled room. The efficacy is assessed by laying of fertile eggs. After 7 days, the efficacy in % is determined. 100% means that none of the ticks has laid any fertile eggs.

[4] = system: Lucilia cuprina larvae; assay: Lucilia cuprina test (LUCICU); assay type: in vivo; settings: 100 ppm, treated horse meat, after 2 days
Protocol: (§1) Lucilia cuprina Test (LUCICU) Solvent: Dimethyl Sulphoxide To prepare an appropriate active ingredient formulation, 10 mg of active ingredient are mixed with 0.5 ml of dimethyl sulphoxide and the concentrate is diluted with water to the desired concentration. Vessels containing horse meat treated with the active ingredient preparation of the desired concentration are populated with about 20 Lucilia cuprina larvae. After 2 days, the kill in % is determined. 100% means that all of the larvae have been killed; 0% means that none of the larvae have been killed.

[5] = system: Myzus persicae; assay: Myzus test (MYZUPE spray treatment); assay type: in vivo; settings: 500 g/ha, Chinese cabbage discs, after 6 days
Protocol: Myzus test (MYZUPE Spray Treatment) Solvent: 78 parts by weight of acetone • • 1.5 parts by weight of dimethylformamide Emulsifier: 0.5 part by weight of alkylaryl polyglycol ether To prepare an appropriate active ingredient preparation, 1 part by weight of active ingredient is mixed with the stated amounts of solvent and emulsifier, and the concentrate is diluted with emulsifier-containing water to the desired concentration. Discs of Chinese cabbage (Brassica pekinensis) infested by all stages of the green peach aphid (Myzus persicae) are sprayed with an active ingredient preparation of the desired concentration. After 6 days, the efficacy in % is determined. 100% means that all of the aphids have been destroyed; 0% means that none of the aphids have been destroyed.

[6] = system: Ctenocephalides felis; assay: Ctenocephalides felis test (CTECFE); assay type: in vivo; settings: 100 ppm in citrated cow's blood, after 2 days
Protocol: Ctenocephalides felis Test ([…]) Solvent: 1 Part by Weight of Dimethyl Sulphoxide For the purpose of preparing an appropriate active ingredient formulation, 10 mg of active ingredient are mixed with 0.5 ml of dimethyl sulphoxide. A portion of the concentrate is diluted with citrated cow's blood and the desired concentration is established. About 20 unfed adult fleas (Ctenocephalides felis) are introduced into a chamber closed at the top and bottom with gauze. A metal cylinder, the bottom of which is closed with Parafilm, is placed onto the chamber. The cylinder contains the blood/active ingredient preparation, which can be imbibed by the fleas through the Parafilm membrane. After 2 days, the kill in % is determined. 100% means that all fleas have been killed; 0% means that none of the fleas have been killed.

[7] = system: Musca domestica; assay: Musca domestica test; assay type: in vivo; settings: after 2 days
Protocol: as §1, with “Musca domestica” for “Lucilia cuprina”, “Test” for “Test (LUCICU)”, “a sponge” for “horse meat”, “adult Musca domestica.” for “about 20 Lucilia cuprina larvae.”, “flies” for “larvae”

[8] = system: Phaedon cochleariae; assay: Phaedon test (PHAECO spray treatment); assay type: in vivo; settings: 500 g/ha, Chinese cabbage discs, after 7 days
Protocol: Phaedon Test ([…] Spray Treatment) Solvent: 78.0 parts by weight of acetone • • 1.5 parts by weight of dimethylformamide Emulsifier: 0.5 part by weight of alkylaryl polyglycol ether To prepare an appropriate active ingredient preparation, 1 part by weight of active ingredient is mixed with the stated amounts of solvent and emulsifier, and the concentrate is diluted with emulsifier-containing water to the desired concentration. Discs of Chinese cabbage (Brassica pekinensis) are sprayed with an active ingredient preparation of the desired concentration and, after drying, populated with larvae of the mustard beetle (Phaedon cochleariae). After 7 days, the efficacy in % is determined. 100% means that all beetle larvae have been killed; 0% means that none of the beetle larvae have been killed.

[9] = system: Spodoptera frugiperda; assay: Spodoptera frugiperda test (SPODFR spray treatment); assay type: in vivo; settings: 500 g/ha, maize leaf discs, after 7 days
Protocol: Spodoptera frugiperda Test (SPODFR Spray Treatment) Solvent: 78.0 parts by weight of acetone • • 1.5 parts by weight of dimethylformamide Emulsifier: 0.5 part by weight of alkylaryl polyglycol ether To prepare an appropriate active ingredient preparation, 1 part by weight of active ingredient is mixed with the stated amounts of solvent and emulsifier, and the concentrate is diluted with emulsifier-containing water to the desired concentration. Discs of maize leaves (Zea mays) are sprayed with an active ingredient preparation of the desired concentration and, after drying, populated with caterpillars of the armyworm (Spodoptera frugiperda). After 7 days, the efficacy in % is determined. 100% means that all caterpillars have been killed; 0% means that none of the caterpillars have been killed.

[10] = system: Tetranychus urticae; assay: Tetranychus test, OP-resistant (TETRUR spray treatment); assay type: in vivo; settings: bean leaf discs, after 6 days
Protocol: Tetranychus Test, OP-resistant (TETRUR Spray Treatment)
Solvent: 78.0 parts by weight of acetone • • 1.5 parts by weight of dimethylformamide
Emulsifier: 0.5 part by weight of alkylaryl polyglycol ether
To prepare an appropriate active ingredient preparation, 1 part by weight of active ingredient is mixed with the stated amounts of solvent and emulsifier, and the concentrate is diluted with emulsifier-containing water to the desired concentration. Discs of bean leaves (Phaseolus vulgaris) infested by all stages of the red spider mite (Tetranychus urticae) are sprayed with an active ingredient preparation of the desired concentration. After 6 days, the efficacy in % is determined. 100% means that all spider mites have been killed; 0% means that none of the spider mites have been killed.

| log P [1] | chromatographic logP ([1]; reversed-phase HPLC column, read-out: log P) | SMILES | efficacy [2] [%] | efficacy [3] [%] | efficacy (kill) [4] [%] | efficacy [5] [%] | efficacy (kill) [6] [%] | efficacy (kill) ([7]; 100 ppm) [%] | efficacy [8] [%] | efficacy [9] [%] | efficacy ([10]; 500 g/ha) [%] | efficacy (kill) ([7]; 20 ppm) [%] | efficacy ([10]; 100 g/ha) [%] |
| --- | --- | --- | --- | --- | --- | --- | --- | --- | --- | --- | --- | --- | --- |
| 3.94* |  | COc1nccnc1-n1nc(C(F)(F)F)c(-c2ccc(Cl)c(C(F)(F)F)c2)c1N [Ex. 18] | 100 | 100 | 100 | 90 |  |  | 100 | 83 | 100 |  |  |
| 3.74* |  | COc1nccnc1-n1nc(C(C)(F)F)c(-c2ccc(Cl)c(C(F)(F)F)c2)c1N [Ex. 20] | 100 | 100 | 100 | 100 |  |  | 100 | 100 | 100 |  |  |
|  | 3.63 | COc1cc(-c2c(C(F)(F)F)nn(-c3nccnc3OC)c2N)cc(C(F)(F)F)c1 [compound 26, 1-(3-methoxypyrazin-2-yl)-4-[3-methoxy-5-(trifluoromethyl)phenyl]-3-(trifluoromethyl)-1H-pyrazol-5-amine] | 90 | 100 | 100 |  | 95 |  | 100 | 83 | 100 |  |  |

Further lines, the compound ahead of its results:

| SMILES | log P [1] | chromatographic logP ([1]; reversed-phase HPLC column, read-out: log P) | efficacy [2] [%] | efficacy [3] [%] | efficacy (kill) [4] [%] | efficacy [5] [%] | efficacy (kill) [6] [%] | efficacy (kill) ([7]; 100 ppm) [%] | efficacy [8] [%] | efficacy [9] [%] | efficacy ([10]; 500 g/ha) [%] | efficacy (kill) ([7]; 20 ppm) [%] | efficacy ([10]; 100 g/ha) [%] |
| --- | --- | --- | --- | --- | --- | --- | --- | --- | --- | --- | --- | --- | --- |
| C=Cc1nn(-c2nccnc2OC)c(N)c1-c1cc(Cl)cc(Cl)c1 [Ex. 8] | 3.51* |  | 90 | 100 | 100 | 100 |  |  |  |  |  |  |  |
| COc1nccnc1-n1nc(C(F)(F)C(F)(F)F)c(-c2cc(Cl)cc(C(F)(F)F)c2)c1N [Ex. 15] | 4.58* |  | 100 | 100 | 100 | 100 | 95 | 95 | 100 | 100 | 100 |  |  |
| COc1nccnc1-n1nc(C(F)(F)Cl)c(-c2cc(Cl)cc(C(F)(F)F)c2)c1N [Ex. 17] | 4.24* |  | 100 | 100 | 100 | 100 | 100 | 100 | 100 | 100 | 100 |  |  |
| COc1nccnc1-n1nc(C(F)(F)C(F)(F)OC)c(-c2cc(Cl)cc(C(F)(F)F)c2)c1N [Ex. 47] | 3.98* |  | 100 | 100 | 100 | 80 | 100 | 80 | 100 | 100 | 100 |  |  |
| COc1nccnc1-n1nc(C(F)(F)F)c(-c2cc(Br)c3c(c2)OCCO3)c1N [Ex. 132] | 3.09* |  | 100 | 100 | 100 |  | 100 | 80 | 100 | 100 | 80 |  |  |
| COc1nccnc1-n1nc(C(F)(F)F)c(-c2cc(Cl)c3c(c2)OCCO3)c1N [Ex. 133] | 3.02* |  | 95 | 100 | 100 |  | 100 |  | 100 | 100 |  | 80 | 90 |
